Experimental findings from patent publication US7317014B2, “Bio-active pyrimidine molecules” (Orchid Research Laboratories, Ltd., priority 2002, dated 2008) are described below.

One series concerns SF-268. Put plainly: DTP human tumor cell line one-dose prescreen, SF-268. In kind it is cell-based. The note with it: Concentration (100 μm), CNS SF-268, test/control (T/C). The procedure:
(§1) The current assay utilizes a 384 well plate format and fluorescent staining technologies resulting in greater screening capacity for testing of synthetic samples. Cell Lines The cell lines of the cancer screening panel are grown in RPMI 1640 medium containing 5% fetal bovine serum and 2 mM L-glutamine. For a typical screening experiment, cells are inoculated into 96 well microtiter plates in 100 μL. After cell inoculation, the microtiter plates are incubated at 37° C., 5% CO2, 95% air and 100% relative humidity for 24 h prior to addition of experimental drugs. The cells are plated a densities of 5000 cells/well (MCF7), 1000 cells/well (NCI-H460), and 7500 cells/well (SF-268) to allow for varying doubling time of the cell lines. Each plate contains all three cell lines, a series of dilutions of standard agents, total kill wells and appropriate controls. Plates are incubated under standard conditions for 24 hours prior to addition of experimental compounds or extracts. Addition of Experimental Agents (Pure Compounds) […] Two standard drugs, meaning that their activities against the cell lines are well documented, are tested against each cell line: NSC 19893 (5-FU) and NSC 123127 (Adriamycin). Endpoint Measurement After compound addition, plates are incubated at standard conditions for ?hours, 10 μl/well Alamar Blue is added and the plates are incubated for an additional 4 hours. Fluorescence is measured using an excitation wavelength of 530 nm and an emission wavelength of 590 nm. Calculation of Percent Test Cell Growth/Control (Untreated) Cell Growth (T/C) Calculation of Percent Test Cell Growth/Control (Untreated) Cell Growth (T/C) Percent growth is calculated on a plate-by-plate basis for test wells relative to control wells. Percent Growth is expressed as the ratio of fluorescence of the test well to the average fluorescence of the control wells ×100.

Another series has as its system TNF-α. Put plainly: TNF-α production from LPS-stimulated human monocytes (ELISA). In kind it is cell-based. To be noted: Monocyte; for inhibition at 1 µM: Conc. 1 μM.
A further series deals with NCI-H460. The series is described as follows: DTP human tumor cell line one-dose prescreen, NCI-H460. In kind it is cell-based. To be noted: Concentration (100 μm), Lung NCI-H460, test/control (T/C). As to the method:
as §1

The next series deals with MCF7. The series is described as follows: DTP human tumor cell line one-dose prescreen, MCF7. To be noted: Concentration (100 μm), Breast MCF7, test/control (T/C). The class given is cell-based. As to the method: as §1
A further series deals with T1, COX-2 (Homo sapiens, UniProt P35354).
T1 construct: incubation of human blood with lipopolysaccharide (LPS), which induces COX-2 production in the blood; endogenous in cells; host or cells: fresh human whole blood from male volunteers, LPS-stimulated, aspirin-pretreated
T1 sequence (P35354 18-604): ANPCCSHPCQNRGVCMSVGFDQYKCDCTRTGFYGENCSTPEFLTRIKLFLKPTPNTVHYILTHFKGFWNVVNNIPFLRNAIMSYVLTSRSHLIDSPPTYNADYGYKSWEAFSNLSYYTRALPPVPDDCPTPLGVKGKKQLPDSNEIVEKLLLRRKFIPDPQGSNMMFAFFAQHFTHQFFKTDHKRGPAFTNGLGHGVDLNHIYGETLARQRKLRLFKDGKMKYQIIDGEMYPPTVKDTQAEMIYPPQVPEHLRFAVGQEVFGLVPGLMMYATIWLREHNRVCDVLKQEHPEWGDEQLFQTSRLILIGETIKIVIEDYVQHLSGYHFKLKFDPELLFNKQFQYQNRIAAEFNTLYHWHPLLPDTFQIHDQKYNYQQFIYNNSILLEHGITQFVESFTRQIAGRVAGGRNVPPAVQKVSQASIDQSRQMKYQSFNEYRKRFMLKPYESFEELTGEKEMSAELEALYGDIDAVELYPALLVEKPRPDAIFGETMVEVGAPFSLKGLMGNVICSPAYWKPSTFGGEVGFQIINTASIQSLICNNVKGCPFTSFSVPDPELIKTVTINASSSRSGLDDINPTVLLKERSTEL
Put plainly: Human whole blood assay, COX-2 inhibition (PGE2 after LPS). In kind it is cell-based. The note with it: Conc. 0.1 μM, 24 h. The procedure:
The COX-2 inhibition activity of the compounds illustrated in the examples was determined by the following method. Human Whole Blood Assay Human whole blood provides a protein and cell rich milieu appropriate for the study of biochemical efficacy of anti-inflammatory compounds such as selective COX-2 inhibitors. […] This is correlating with the observation that COX-2 inhibitors have no effect on prostaglandin E2 (PGE2) production in normal blood. These inhibitors are active only after incubation of human blood with lipopolysaccharide (LPS), which induces COX-2 production in the blood. Method Fresh blood was collected in tubes containing potassium EDTA by vein puncture from male volunteers. The subjects should have no apparent inflammatory conditions and not taken NSAIDs for atleast 7 days prior to blood collection. Blood was treated with aspirin in vitro (10 μg/ml, at time zero) to inactivate COX-1, and then with LPS (10 μg/ml) along with test agents or vehicle. The blood was incubated for 24 h at 37° C., after which the tubes were centrifuged, the plasma was separated and stored at −80° C. (J. Pharmacol. Exp. Ther., 271, 1705, 1994; Proc. Natl. Acad. Sci. USA., 96, 7563, 1999). The plasma was assayed for PGE2 using Cayman ELISA kit as per the procedure outlined by the manufacturer (Cayman Chemicals, Ann Arbor, USA). The plasma was also tested for TNF-α, IL-1β, and IL-6 using appropriate human ELISA kit as per the procedure of manufacturer (Cayman Chemicals, Ann Arbor, USA).

A further series deals with Male Wistar rats. The series is described as follows: Rat carrageenan paw edema test. The class given is in vivo. The note with it: oral.

The structures appear in SMILES notation.

In turn, `CS(=O)(=O)c1ccc(-c2nc(C(F)(F)F)nc(Cl)c2-c2ccccc2)cc1` [Example 4, 4-chloro-6-[4-(methylsulfonyl)phenyl]-5-phenyl-2-(trifluoromethyl)pyrimidine] yielded a melting point of 156 to 159 °C. Besides, the “Percentage Growth CNS SF-268” value in the series with SF-268 is recorded as 3. In the series with TNF-α (Conc. 10 μM), this compound displayed an inhibition at 10 µM of 55.4%. In the series with NCI-H460, the “Percentage Growth Lung NCI-H460” value was found to be 0. In addition, in the series on MCF7, the “Percentage Growth Breast MCF7” value is 0.
Regarding `CS(=O)(=O)c1ccc(-c2nc(C(F)(F)F)nc(Cl)c2-c2ccc(F)cc2)cc1` [Example 6, 4-chloro-5-(4-fluorophenyl)-6-[4-(methylsulfonyl)phenyl]-2-(trifluoromethyl)pyrimidine], the melting point is 195 to 197 °C. The compound further came in with an inhibition at 0.1 µM at COX-2 of 51.9%. Moreover, the “Percentage Growth CNS SF-268” value in the series on SF-268 is on record as 12. The compound further displayed an inhibition at 1 µM in the series with TNF-α of 51.5%. Moreover, the “Rat Paw Edema model % Inhibition (10 mg/kg body weight)” value in the series with Male Wistar rats worked out at 64%. Also, the “Percentage Growth Lung NCI-H460” value in the series with NCI-H460 stood at 0. In the series with MCF7, the “Percentage Growth Breast MCF7” value is given as 0.
`COc1ccc(-c2c(Cl)nc(Cl)nc2-c2ccccc2)cc1` [Example 11, 2,4-dichloro-5-(4-methoxyphenyl)-6-phenylpyrimidine]: the melting point was 132 to 134 °C. The “Percentage Growth CNS SF-268” value in the series with SF-268 came out at 2. In the series on TNF-α, this compound yielded an inhibition at 1 µM of 29.2%. The “Percentage Growth Lung NCI-H460” value with NCI-H460 was determined as 0. Further, in the series with MCF7, the “Percentage Growth Breast MCF7” value turned out to be 5.
